Source: ChEMBL document CHEMBL6083193, “Advancing drug discovery: Thiadiazole derivatives as multifaceted agents in medicinal chemistry and pharmacology” (Bioorg Med Chem, 2024)
≈ marks a conversion by molar mass, not a printed value.

Assays:
[1] = test system: Mus musculus; assay: Antiinflammatory activity against carrageenan-induced paw edema in Swiss mouse assessed as reduction in paw edema at 15 mg/kg, po relative to control; assay type: functional; parameters: scale not given: the % may be the effect or the level left
[2] = Inhibition of Alpha-amylase (unknown origin); parameters: species or system Homo sapiens
[3] = biological target: Alpha glucosidase (Homo sapiens, UniProt O43451+P10253+P14410+Q2M2H8); assay: Inhibition of Alpha-glucosidase (unknown origin); assay type: protein assay
[4] = test system: A549; assay: Cytotoxicity against human A549 cells assessed as reduction in cell growth; assay type: functional, cell-based
[5] = test system: MCF7; assay: Anticancer activity against human MCF7 cells by MTT assay; assay type: functional, cell-based
[6] = test system: A2780; assay: Anticancer activity against human A2780 cells by MTT assay; assay type: functional, cell-based
[7] = test system: COLO 205; assay: Anticancer activity against human COLO 205 cells by MTT assay; assay type: functional, cell-based
[8] = test system: A549; assay: Anticancer activity against human A549 cells by MTT assay; assay type: functional, cell-based
[9] = Antioxidant activity assessed as DPPH radical scavenging activity measured for 30 mins by spectrophotometric analysis; assay type: functional
[10] = test system: Toxoplasma gondii; assay: Antiparasitic activity against Toxoplasma gondii RH infected in human HFF cells; assay type: functional, organism-based
[11] = test system: A549; assay: Cytotoxicity against human A549 cells assessed as reduction in cell viability by MTT assay; assay type: functional, cell-based
[12] = test system: MCF7; assay: Cytotoxicity against human MCF7 cells assessed as reduction in cell viability by MTT assay; assay type: functional, cell-based
[13] = test system: COLO 205; assay: Cytotoxicity against human COLO 205 cells assessed as reduction in cell viability by MTT assay; assay type: functional, cell-based
[14] = test system: A2780; assay: Cytotoxicity against human A2780 cells assessed as reduction in cell viability by MTT assay; assay type: functional, cell-based

COc1cccc(/C=C2\S/C(=N/c3nnc(C45CC6CC(CC(C6)C4)C5)s3)NC2=O)c1
Activity [1]: 66.7%

Cc1ccc(NC(=S)Nc2nsc(Nc3ccc(Cl)cc3)n2)cc1
IC50 [2]: 1300 nM
IC50 [3]: 2200 nM

O=C1N/C(=N\c2nnc(C34CC5CC(CC(C5)C3)C4)s2)S/C1=C\c1ccc(F)cc1
Activity [1]: 66.7%

O=C1N/C(=N\c2nnc(C34CC5CC(CC(C5)C3)C4)s2)S/C1=C\c1ccc(Br)cc1
Activity [1]: 66.7%

COc1ccccc1NC(=S)Nc1nsc(Nc2ccc(Cl)c(Cl)c2)n1
IC50 [2]: 1300 nM
IC50 [3]: 2200 nM

CCCNc1nnc(SCC(=O)N2N=C(c3ccccc3)CC2c2ccc([N+](=O)[O-])cc2)s1 (stereo not drawn)
IC50 [4]: 10000 nM

O=C(Nc1ccc(Br)cc1)c1ccc(-c2nsc(-c3csc(-c4ccncc4)n3)n2)cc1
IC50 [5]: 110 nM
IC50 [6]: 110 nM
IC50 [7]: 110 nM
IC50 [8]: 110 nM

O=C(Nc1ccc([N+](=O)[O-])cc1)c1ccc(-c2nsc(-c3csc(-c4ccncc4)n3)n2)cc1
IC50 [5]: 110 nM
IC50 [6]: 110 nM
IC50 [7]: 110 nM
IC50 [8]: 110 nM

O=C(Nc1cc([N+](=O)[O-])cc([N+](=O)[O-])c1)c1ccc(-c2nsc(-c3csc(-c4ccncc4)n3)n2)cc1
IC50 [5]: 110 nM
IC50 [6]: 110 nM
IC50 [7]: 110 nM
IC50 [8]: 110 nM

O=C(Nc1ccc(Cl)cc1)c1ccc(-c2nsc(-c3csc(-c4ccncc4)n3)n2)cc1
IC50 [5]: 110 nM
IC50 [6]: 110 nM
IC50 [7]: 110 nM
IC50 [8]: 110 nM

O=C1N/C(=N\c2nnc(C34CC5CC(CC(C5)C3)C4)s2)S/C1=C\c1c(Cl)cccc1Cl
Activity [1]: 66.7%

Nc1nn(-c2ccccc2)nc1C(=O)Nc1nncs1
IC50 [9]: 39.27 µg/mL (≈ 137 µM)

O=C1N/C(=N\c2nnc(C34CC5CC(CC(C5)C3)C4)s2)S/C1=C\c1ccccc1[N+](=O)[O-]
Activity [1]: 66.7%

Cc1ccc(/C=C2\S/C(=N\c3nn(-c4ccccc4)nc3C(=O)Nc3nncs3)NC2=O)cc1
IC50 [9]: 22.63 µg/mL (≈ 46.3 µM)

O=[N+]([O-])c1cccc(NC(=S)Nc2nsc(Nc3cccc([N+](=O)[O-])c3)n2)c1
IC50 [2]: 1300 nM
IC50 [3]: 2200 nM

Cc1nc[nH]c1-c1nnc(Nc2cccc(Br)c2)s1
IC50 [10]: 4.7 µg/mL (≈ 14 µM)

O=C1N/C(=N\c2nnc(C34CC5CC(CC(C5)C3)C4)s2)S/C1=C\c1c(F)cccc1F
Activity [1]: 66.7%

O=C1N/C(=N/c2nn(-c3ccccc3)nc2C(=O)Nc2nncs2)S/C1=C\c1ccc(Cl)cc1
IC50 [9]: 22.63 µg/mL (≈ 44.5 µM)

O=C1N/C(=N\c2nnc(C34CC5CC(CC(C5)C3)C4)s2)S/C1=C\c1cccc(F)c1F
Activity [1]: 66.7%

Cc1nc[nH]c1-c1nnc(Nc2cccc(I)c2)s1
IC50 [10]: 4.7 µg/mL (≈ 12.3 µM)

N#Cc1ccc(NC(=O)c2ccc(-c3nsc(-c4csc(-c5ccncc5)n4)n3)cc2)cc1
IC50 [5]: 110 nM
IC50 [6]: 110 nM
IC50 [7]: 110 nM
IC50 [8]: 110 nM

FC(F)(F)c1cccc(Nc2nc(NC(=S)Nc3ccc(Cl)cc3)ns2)c1
IC50 [2]: 1300 nM
IC50 [3]: 2200 nM

O=[N+]([O-])c1cccc(NC(=S)Nc2nsc(Nc3ccc(F)cc3)n2)c1
IC50 [2]: 1300 nM
IC50 [3]: 2200 nM

Cc1ccc(/C=C2\S/C(=N/c3nnc(C45CC6CC(CC(C6)C4)C5)s3)NC2=O)cc1
Activity [1]: 66.7%

CC(C)Nc1nnc(SCC(=O)N2N=C(c3ccccc3)CC2c2ccc([N+](=O)[O-])cc2)s1 (stereo not drawn)
IC50 [4]: 10000 nM

Cc1cccc(CN2C(=O)/C(=N\Nc3nncs3)c3ccccc32)c1
IC50 [2]: 2590 nM
IC50 [3]: < 500000 nM

COc1ccc(/C=C2\S/C(=N/c3nnc(C45CC6CC(CC(C6)C4)C5)s3)NC2=O)cc1
Activity [1]: 66.7%

O=[N+]([O-])c1ccc(NC(=S)Nc2nsc(Nc3ccc(Cl)cc3)n2)cc1
IC50 [2]: 1300 nM
IC50 [3]: 2200 nM

COc1ccc(Nc2nnc(SCC(=O)N3N=C(c4ccccc4)CC3c3ccc([N+](=O)[O-])cc3)s2)cc1 (stereo not drawn)
IC50 [4]: 10000 nM

Cc1nc[nH]c1-c1nnc(Nc2ccc(I)cc2)s1
IC50 [10]: 4.7 µg/mL (≈ 12.3 µM)

O=C1N/C(=N\c2nnc(C34CC5CC(CC(C5)C3)C4)s2)S/C1=C\c1cccc([N+](=O)[O-])c1
Activity [1]: 66.7%

Cc1nc[nH]c1-c1nnc(Nc2ccc(Br)cc2)s1
IC50 [10]: 4.7 µg/mL (≈ 14 µM)

O=C1N/C(=N\c2nnc(C34CC5CC(CC(C5)C3)C4)s2)S/C1=C\c1ccccc1
Activity [1]: 66.7%

COc1cc(NC(=O)c2ccc(-c3nsc(-c4csc(-c5ccncc5)n4)n3)cc2)cc(OC)c1
IC50 [11]: 110 nM
IC50 [12]: 340 nM
IC50 [5]: 110 nM
IC50 [6]: 110 nM
IC50 [7]: 110 nM
IC50 [13]: 120 nM
IC50 [8]: 110 nM
IC50 [14]: 140 nM

CCNc1nnc(SCC(=O)N2N=C(c3ccccc3)CC2c2ccc([N+](=O)[O-])cc2)s1 (stereo not drawn)
IC50 [4]: 10000 nM

CCc1ccc(C2SCC(=O)N2c2nnc(-c3ccccc3)s2)cc1 (stereo not drawn)
IC50 [2]: 3870 nM
IC50 [3]: < 500000 nM

O=C1N/C(=N\c2nnc(C34CC5CC(CC(C5)C3)C4)s2)S/C1=C\c1cccc(Cl)c1Cl
Activity [1]: 66.7%

O=[N+]([O-])c1ccccc1NC(=S)Nc1nsc(Nc2ccc(Cl)c(Cl)c2)n1
IC50 [2]: 1300 nM
IC50 [3]: 2200 nM

O=C1N/C(=N\c2nnc(C34CC5CC(CC(C5)C3)C4)s2)S/C1=C\c1ccc([N+](=O)[O-])cc1
Activity [1]: 66.7%

Cc1[nH]cnc1-c1nnc(Nc2ccc(Cl)cc2)s1
IC50 [10]: 4.7 µg/mL (≈ 16.1 µM)

COc1cccc(NC(=S)Nc2nsc(Nc3ccc(Cl)c(Cl)c3)n2)c1
IC50 [2]: 1300 nM
IC50 [3]: 2200 nM

S=C(Nc1ccc(Br)cc1)Nc1nsc(Nc2ccc(Cl)cc2)n1
IC50 [2]: 1300 nM
IC50 [3]: 2200 nM

Cc1cc(C)cc(NC(=O)c2ccc(-c3nsc(-c4csc(-c5ccncc5)n4)n3)cc2)c1
IC50 [5]: 110 nM
IC50 [6]: 110 nM
IC50 [7]: 110 nM
IC50 [8]: 110 nM

Cc1nc[nH]c1-c1nnc(Nc2cccc(F)c2)s1
IC50 [10]: 4.7 µg/mL (≈ 17.1 µM)

Fc1ccccc1NC(=S)Nc1nsc(Nc2ccc(Cl)c(Cl)c2)n1
IC50 [2]: 1300 nM
IC50 [3]: 2200 nM

Cc1[nH]cnc1-c1nnc(Nc2ccc(F)cc2)s1
IC50 [10]: 4.7 µg/mL (≈ 17.1 µM)

O=C1N/C(=N\c2nnc(C34CC5CC(CC(C5)C3)C4)s2)S/C1=C\c1ccc(O)cc1
Activity [1]: 66.7%

Cc1nc[nH]c1-c1nnc(Nc2ccccc2Br)s1
IC50 [10]: 4.7 µg/mL (≈ 14 µM)

CCCCNc1nnc(SCC(=O)N2N=C(c3ccccc3)CC2c2ccc([N+](=O)[O-])cc2)s1 (stereo not drawn)
IC50 [4]: 10000 nM

O=C1N/C(=N\c2nnc(C34CC5CC(CC(C5)C3)C4)s2)S/C1=C\c1ccc(Cl)cc1Cl
Activity [1]: 66.7%

CSc1ccc(C2SCC(=O)N2c2nnc(-c3ccccc3)s2)cc1 (stereo not drawn)
IC50 [3]: < 500000 nM

O=[N+]([O-])c1ccc(NC(=S)Nc2nsc(Nc3cccc([N+](=O)[O-])c3)n2)cc1
IC50 [2]: 1300 nM
IC50 [3]: 2200 nM

O=C1CS/C(=N\c2nn(-c3ccccc3)nc2C(=O)Nc2nncs2)N1
IC50 [9]: 44.35 µg/mL (≈ 115 µM)

O=[N+]([O-])c1ccccc1NC(=S)Nc1nsc(Nc2cccc(C(F)(F)F)c2)n1
IC50 [2]: 1300 nM
IC50 [3]: 2200 nM

N#C/C(=N\Nc1ccccc1)C(=O)Nc1nncs1
IC50 [9]: 37.25 µg/mL (≈ 137 µM)

Cc1nc[nH]c1-c1nnc(Nc2cccc(Cl)c2)s1
IC50 [10]: 4.7 µg/mL (≈ 16.1 µM)

O=C(CSc1nnc(NC2CCCCC2)s1)N1N=C(c2ccccc2)CC1c1ccc([N+](=O)[O-])cc1 (stereo not drawn)
IC50 [4]: 10000 nM

COc1ccc(/C=C2\S/C(=N\c3nn(-c4ccccc4)nc3C(=O)Nc3nncs3)NC2=O)cc1
IC50 [9]: 22.63 µg/mL (≈ 44.9 µM)

O=[N+]([O-])c1cccc(Nc2nc(NC(=S)Nc3ccc(Cl)cc3Cl)ns2)c1
IC50 [2]: 1300 nM
IC50 [3]: 2200 nM

FC(F)(F)c1cccc(Nc2nc(NC(=S)Nc3ccccc3)ns2)c1
IC50 [2]: 1300 nM
IC50 [3]: 2200 nM

Cc1nc[nH]c1-c1nnc(Nc2ccccc2Cl)s1
IC50 [10]: 4.7 µg/mL (≈ 16.1 µM)

CN(C)c1ccc(/C=C2\S/C(=N/c3nnc(C45CC6CC(CC(C6)C4)C5)s3)NC2=O)cc1
Activity [1]: 66.7%

Cc1nc[nH]c1-c1nnc(Nc2ccccc2I)s1
IC50 [10]: 4.7 µg/mL (≈ 12.3 µM)

Cc1ccc(Nc2nnc(SCC(=O)N3N=C(c4ccccc4)CC3c3ccc([N+](=O)[O-])cc3)s2)cc1 (stereo not drawn)
IC50 [4]: 10000 nM

O=C(CCl)Nc1nn(-c2ccccc2)nc1C(=O)Nc1nncs1
IC50 [9]: 22.63 µg/mL (≈ 62.2 µM)

S=C(Nc1ccc(Cl)c(Cl)c1)Nc1nsc(Nc2ccc(Cl)c(Cl)c2)n1
IC50 [2]: 1300 nM
IC50 [3]: 2200 nM
